For data set [1] the following is noted: cited from earlier work; for anesthetic properties / utility: prior art statement (fluorocyclobutanes: Larsen 1969 review).
The nature of data set [2]: standard test for evaluation of inhalation anesthetics in mice (rotating drum, 10 min exposure). It counts as in vivo. As to conditions: mouse, in vivo, inhaled or intranasal; calculated from AC50 and LC50 minimum concentrations; read-out: AI (anesthetic index). As to the method:
(§1) In this test, mice were exposed to the compound for a period of 10 minutes in a rotating drum. Observations were made of the pinch reflex, the corneal reflex and the return of the righting reflex. At least four graded doses were employed to determine the minimum concentration required to anesthetized 50% of the mice (AC50) and the minimum concentration required to kill 50% of the mice (LC50). The anesthetic index (AI) was then calculated from these minimum concentrations.

The subject of the next data set is mice. Described as above. As to conditions: mice, inhalation, 10 minutes exposure, rotating drum; % volume. Type of data set: in vivo. The method, then:
as §1

For the molecule `FC1(F)C(F)(F)C(F)(Cl)C1(F)Cl` (centres unmarked) [1,2-dichlorohexafluoro-], the toxicity entry in data set [1] (Larsen 1969 review) is reported as “toxic”.

In the case of `FC1C(F)C(F)(F)C1(F)F` (centres unmarked) [1,2-dihydrohexafluoro-], in data set [1], the “anesthetic properties / utility” value is given as “possesses anesthetic properties”.

As to `COC1(F)C(F)(F)C(F)(F)C1(F)Cl` (centres unmarked) [Example 1, 1-chloro-2-methoxy-1,2,3,3,4,4-hexafluorocyclobutane], the selectivity ratio at 10 min in data set [2] was approximately 2. Also, in the data set with mice, the “LC50 (minimum concentration required to kill 50% of the mice)” value is listed as 7-8%.

Take `COC1CC(F)(F)C1(F)Cl` (centres unmarked) [Example 2, 1-chloro-2methoxy-1,4,4-trifluorocyclobutane]: the selectivity ratio at 10 min in data set [2] is more than 2. In the data set on mice, the “LC50 (minimum concentration required to kill 50% of the mice)” value is recorded as more than 2%.

With `COC1(F)C(F)(F)C(F)(F)C1(F)Br` (centres unmarked) [Example 3, 1-bromo-2-methoxy-1,2,3,3,4,4-hexafluorocyclobutane], in data set [2], the selectivity ratio at 10 min was more than 2.5. The “LC50 (minimum concentration required to kill 50% of the mice)” value with mice is more than 2.5%.

As for `C1CCCC1` [cyclopentane], the “anesthetic properties / utility” value in data set [1] is on record as “no medical utility”.

Turning to `C1CC1` [cyclopropane], the “anesthetic properties / utility” value in data set [1] was “effective if inflammable anesthetic”.

Take `FC1(F)C(F)(F)C(F)(F)C1(F)F` [octafluoro-]: the “anesthetic properties / utility” value in data set [1] is “inactive”.

These data come from patent US3958013A, “Halogenated cyclobutyl ether anesthetics” (W. R. Grace & Co., priority 1975, dated 1976).
